Results from publication PMC10762035, “Molecular basis of human trace amine-associated receptor 1 activation” (Nature Communications, 2024).
Values joined by “and” are separate entries in the source; they are usually repeats but may differ in a detail not shown here. Equal values may be shown once.

Experiments:
mTA1 [1] = conditions: read-out: affinity; cited from earlier work
hTA1 [2] = molecular target: T1, hTA1 (Homo sapiens, UniProt Q96RJ0); conditions: cited from earlier work
T1 construct: expressed in transfected cells; host or cells: HEK293T
T1 sequence (Q96RJ0 1-339): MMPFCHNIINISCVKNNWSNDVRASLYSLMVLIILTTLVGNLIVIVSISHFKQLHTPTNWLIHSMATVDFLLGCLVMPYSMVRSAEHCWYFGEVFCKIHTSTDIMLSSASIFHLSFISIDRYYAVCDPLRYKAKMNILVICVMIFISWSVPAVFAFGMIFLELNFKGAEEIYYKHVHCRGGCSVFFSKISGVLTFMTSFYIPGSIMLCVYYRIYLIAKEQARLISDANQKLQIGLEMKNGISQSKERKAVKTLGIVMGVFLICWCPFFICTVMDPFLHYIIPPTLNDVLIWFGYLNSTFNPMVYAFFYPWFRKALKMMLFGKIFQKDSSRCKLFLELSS

hTA1 [3] = molecular target: T1, hTA1; conditions: antagonist; cited from earlier work
rTA1 = conditions: cited from earlier work
mTA1 [4] = conditions: cited from earlier work
DRD4 S^5.43A = conditions: S^5.43A mutation in DRD4; cited from earlier work
hTA1 [5] = molecular target: T1, hTA1; test: GloSensor cAMP accumulation assay, concentration response, wild-type hTA1 in transfected HEK293T cells; format: cell-based; conditions: log[Compound], replicate wells;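 note: luminescence read after 30 min compound exposure at room temperature in cells preloaded with D-Luciferin, reflecting Gs-driven cAMP rise, efficacy scaled to the maximal β-PEA response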
hTA1 [6] = molecular target: T1, hTA1; test: Screen of 89 aminergic compounds at 10 µM, cAMP accumulation in HEK293T cells; format: cell-based; conditions: 10 µM of compound; HEK293T; threshold log2-fold change of 2;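 note: HEK293T cells co-transfected with hTA1 and GloSensor cAMP reporter, cAMP accumulation detected by luminescence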

CCOc1cccc(NC(=O)c2ccc(N3CCCC3)c(C(F)(F)F)c2)c1 [EPPTB]
Ki (mTA1 [1]): ~1 nM | binding to hTA1 (hTA1 [2]): does not appear to bind hTA1

N#Cc1c(C(F)(F)F)cc(-c2ccc(Cl)cc2)nc1SCC(=O)Nc1ncccn1 [RTI-7470-44]
IC50 (hTA1 [3]): ~8 nM | reduced potency relative to hTA1 (rTA1; rTA1): ~ 90 fold | reduced potency relative to hTA1 (mTA1 [4]): ~ 140 fold

NCCc1ccc(O)c(O)c1 [dopamine]
lowered potency by mutation (DRD4 S^5.43A): 7 fold

C[C@H]1CNCCc2ccc(Cl)cc21 [lorcaserin]
Normalized Luminescence Counts for WT hTA1 (hTA1 [5]; M = -5): 36.902 and 34.0112 and 1.008 and 64.4771 and 65.1158 and 60.8849 | Normalized Luminescence Counts for WT hTA1 (hTA1 [5]; M = -5.522): 12.6245 and 12.4103 and 0.5526 and 38.1001 and 37.3361 and 35.7852 | Normalized Luminescence Counts for WT hTA1 (hTA1 [5]; M = -6): 4.327 and 4.728 and 0.4991 and 15.3153 and 15.7258 and 16.125 | Normalized Luminescence Counts for WT hTA1 (hTA1 [5]; M = -6.522): 2.1854 and 0.9809 and 0.8203 and 4.949 and 4.904 and 5.611 | Normalized Luminescence Counts for WT hTA1 (hTA1 [5]; M = -7): 0.4723 and 0.2314 and 1.222 and 2.349 and 1.654 and 2.0983 | Normalized Luminescence Counts for WT hTA1 (hTA1 [5]; M = -7.522): -0.3039 and -0.5448 and 0.6329 and 0.4676 and 0.5018 and 0.5816 | Normalized Luminescence Counts for WT hTA1 (hTA1 [5]; M = -8): 0.7132 and 0.4188 and 1.757 and 0.2053 and 0.05702 and 0.536 | Normalized Luminescence Counts for WT hTA1 (hTA1 [5]; M = -8.522): -0.06302 and 0.9006 and 0.8738 and 0.593 and 0.5702 (2×) | Normalized Luminescence Counts for WT hTA1 (hTA1 [5]; M = -9): 0.2582 and -0.1433 and 0.5258 and 0.3193 and 0.2737 and 0.3877 | Normalized Luminescence Counts for WT hTA1 (hTA1 [5]; M = -9.522): 0.2582 and -0.4913 and 0.7132 and 0.3877 and 0.2851 and 0.2965 | Normalized Luminescence Counts for WT hTA1 (hTA1 [5]; M = -10): -0.06302 and -0.4378 and 0.6865 and 0.4904 and 0.2737 and 0.2851 | Normalized Luminescence Counts for WT hTA1 (hTA1 [5]; M = -10.522): -0.5448 and -0.8928 and 1.141 and 0.1825 and 0.2281 and -0.06842 | Normalized Luminescence Counts for WT hTA1 (hTA1 [5]; M = -11): 0.1511 and -0.08979 and 0.7668 and -0.1368 and -0.1254 and -0.1482 | Normalized Luminescence Counts for WT hTA1 (hTA1 [5]; M = -11.522): 0.9809 and -0.009489 and 0.6329 and 0.3991 and 0.3421 and 0.2167 | Normalized Luminescence Counts for WT hTA1 (hTA1 [5]; M = -12): 0.6865 and 0.6329 and 1.195 and 0.1825 and 0.0114 and -0.07983 | Normalized Luminescence Counts for WT hTA1 (hTA1 [5]; M = -12.522): 0.4455 and 0.4723 and 1.141 and 0.03421 and 0.0114 and -0.114 | increase of signal over DMSO-treated controls (hTA1 activation) (hTA1 [6]): ≥ 4 fold

Cc1cc(C(C)(C)C)c(O)c(C)c1CC1=NCCN1 [oxymetazoline]
Normalized Luminescence Counts for WT hTA1 (hTA1 [5]; M = -5): 35.3607 and 39.1587 and 34.0837 and 3.969 and 2.152 and 2.824 | Normalized Luminescence Counts for WT hTA1 (hTA1 [5]; M = -5.522): 27.6664 and 21.0198 and 25.8983 and 1.56 and 0.6511 and 0.8091 | Normalized Luminescence Counts for WT hTA1 (hTA1 [5]; M = -6): 14.0131 and 12.0159 and 14.9299 and -0.5736 and -1.127 and -1.4822 | Normalized Luminescence Counts for WT hTA1 (hTA1 [5]; M = -6.522): 3.994 and 5.664 and 5.697 and -1.838 and -1.68 and -1.798 | Normalized Luminescence Counts for WT hTA1 (hTA1 [5]; M = -7): 1.539 and 1.637 and 2.128 and -1.4822 and -2.075 and -1.719 | Normalized Luminescence Counts for WT hTA1 (hTA1 [5]; M = -7.522): -0.1968 and -0.426 and -0.09854 and -2.035 and -2.2723 and -2.391 | Normalized Luminescence Counts for WT hTA1 (hTA1 [5]; M = -8): 0.03243 and -0.0003118 and 0.1634 and -1.166 and -0.9291 and -1.403 | Normalized Luminescence Counts for WT hTA1 (hTA1 [5]; M = -8.522): -0.7206 and -0.5569 and -0.1313 and -1.364 and -1.522 and -1.956 | Normalized Luminescence Counts for WT hTA1 (hTA1 [5]; M = -9): -0.7534 and -0.7861 and -0.0003118 and -1.403 and -1.798 and -2.035 | Normalized Luminescence Counts for WT hTA1 (hTA1 [5]; M = -9.522): -0.7206 and -0.4914 and -0.5569 and -1.4822 and -1.64 and -1.838 | Normalized Luminescence Counts for WT hTA1 (hTA1 [5]; M = -10): -1.31 and -1.0153 and -0.5242 and -2.075 and -1.4427 and -2.3118 | Normalized Luminescence Counts for WT hTA1 (hTA1 [5]; M = -10.522): -0.1313 and -0.7206 and -0.7861 and -2.075 and -1.4822 and -2.43 | Normalized Luminescence Counts for WT hTA1 (hTA1 [5]; M = -11): -0.03305 and -0.6224 and 0.03243 and -1.522 and -0.4551 and -2.114 | Normalized Luminescence Counts for WT hTA1 (hTA1 [5]; M = -11.522): -0.4914 and -0.4587 and -0.5242 and -1.403 and -1.048 and -2.075 | Normalized Luminescence Counts for WT hTA1 (hTA1 [5]; M = -12): -0.5897 and -0.6224 and -0.3932 and -2.035 and -1.4427 and -1.956 | Normalized Luminescence Counts for WT hTA1 (hTA1 [5]; M = -12.522): 0.09791 and 0.06517 and -0.7861 and -1.64 and -1.127 and -0.8106 | increase of signal over DMSO-treated controls (hTA1 activation) (hTA1 [6]): ≥ 4 fold

CCCN1C[C@H](CSC)C[C@@H]2c3cccc4[nH]cc(c34)C[C@H]21 [pergolide]
Normalized Luminescence Counts for WT hTA1 (hTA1 [5]; M = -5): 13.9149 and 11.9176 and 12.507 | Normalized Luminescence Counts for WT hTA1 (hTA1 [5]; M = -5.522): 9.888 and 9.789 and 7.596 | Normalized Luminescence Counts for WT hTA1 (hTA1 [5]; M = -6): 6.6135 and 5.238 and 5.4348 | Normalized Luminescence Counts for WT hTA1 (hTA1 [5]; M = -6.522): 5.599 and 3.8632 and 6.122 | Normalized Luminescence Counts for WT hTA1 (hTA1 [5]; M = -7): 3.11 and 1.735 and 0.9819 | Normalized Luminescence Counts for WT hTA1 (hTA1 [5]; M = -7.522): 1.047 and 0.5563 and 0.1634 | Normalized Luminescence Counts for WT hTA1 (hTA1 [5]; M = -8): 0.7855 and 0.1634 and 0.8182 | Normalized Luminescence Counts for WT hTA1 (hTA1 [5]; M = -8.522): -0.0658 and 0.09791 and -0.0003118 | Normalized Luminescence Counts for WT hTA1 (hTA1 [5]; M = -9): -0.426 and -0.3932 and -0.5242 | Normalized Luminescence Counts for WT hTA1 (hTA1 [5]; M = -9.522): -0.8516 and -0.0003118 and -0.6224 | Normalized Luminescence Counts for WT hTA1 (hTA1 [5]; M = -10): -0.3277 and 0.03243 and -0.5897 | Normalized Luminescence Counts for WT hTA1 (hTA1 [5]; M = -10.522): -0.7206 and -0.2622 and 0.3598 | Normalized Luminescence Counts for WT hTA1 (hTA1 [5]; M = -11): 0.3926 and 0.1634 and 0.4253 | Normalized Luminescence Counts for WT hTA1 (hTA1 [5]; M = -11.522): 0.4253 and 1.047 and -0.2622 | Normalized Luminescence Counts for WT hTA1 (hTA1 [5]; M = -12): 0.3271 and -0.09854 and 0.6218 | Normalized Luminescence Counts for WT hTA1 (hTA1 [5]; M = -12.522): 0.5236 and 0.9492 and 0.2616 | increase of signal over DMSO-treated controls (hTA1 activation) (hTA1 [6]): ≥ 4 fold

c1ccc2nc(N3CCNCC3)ccc2c1 [quipazine]
Normalized Luminescence Counts for WT hTA1 (hTA1 [5]; M = -5): 4.714 and 4.976 and 5.959 | Normalized Luminescence Counts for WT hTA1 (hTA1 [5]; M = -5.522): 3.012 and 2.619 and 2.979 | Normalized Luminescence Counts for WT hTA1 (hTA1 [5]; M = -6): 0.6873 and 0.2616 and 0.2944 | Normalized Luminescence Counts for WT hTA1 (hTA1 [5]; M = -6.522): 0.06517 and 0.4908 and -0.09854 | Normalized Luminescence Counts for WT hTA1 (hTA1 [5]; M = -7): 0.03243 and 0.2289 and -0.5569 | Normalized Luminescence Counts for WT hTA1 (hTA1 [5]; M = -7.522): -0.0003118 and -0.1313 and -0.0658 | Normalized Luminescence Counts for WT hTA1 (hTA1 [5]; M = -8): 0.2944 and -0.3605 and 0.3598 | Normalized Luminescence Counts for WT hTA1 (hTA1 [5]; M = -8.522): -0.1968 and 0.4581 and 0.1307 | Normalized Luminescence Counts for WT hTA1 (hTA1 [5]; M = -9): -0.2295 and -0.4587 and -0.5242 | Normalized Luminescence Counts for WT hTA1 (hTA1 [5]; M = -9.522): -0.3277 and -0.3605 and -0.6224 | Normalized Luminescence Counts for WT hTA1 (hTA1 [5]; M = -10): -0.164 and -0.2622 and 0.3926 | Normalized Luminescence Counts for WT hTA1 (hTA1 [5]; M = -10.522): 0.3271 and -1.0153 and 0.3926 | Normalized Luminescence Counts for WT hTA1 (hTA1 [5]; M = -11): 0.3598 and 0.06517 and 0.6218 | Normalized Luminescence Counts for WT hTA1 (hTA1 [5]; M = -11.522): 0.4581 and -0.3277 and -0.1968 | Normalized Luminescence Counts for WT hTA1 (hTA1 [5]; M = -12): -0.164 and 0.06517 and -0.09854 | Normalized Luminescence Counts for WT hTA1 (hTA1 [5]; M = -12.522): 0.589 and 1.473 and 0.2944 | increase of signal over DMSO-treated controls (hTA1 activation) (hTA1 [6]): ≥ 4 fold

NCCc1c[nH]c2ccccc12 [tryptamine]
higher potency at rTA1 compared to hTA1 (rTA1; rTA1 vs hTA1): over 50 fold
